Test results published in patent US20230310435A1, “HOST DEFENSE PROTEIN (HDP) MIMETICS FOR PROPHYLAXIS AND/OR TREATMENT OF INFLAMMATORY DISEASES OF THE GASTROINTESTINAL TRACT” (priority 2015, published 2023).
pIC50: −log10 of the molar value. Structures can show the parent of a compound that is named as a salt.

Assays:
[1] = tested on: LPS-induced IL-6 release, NR8383 cells; test: LPS-induced IL-6 release in NR8383 rat macrophages (ELISA); format: cell-based; conditions: Macrophage
Experimental: Method for FIG. 10. […] After 8 hours, supernatants were collected for IL-6 measurement by ELISA using immunoassay kit (R&D Systems, Minneapolis, MN) according to manufacturer's instructions.
The inhibition of IL-6 induction assay was performed according to the Method described for FIG. 10.
(§1) PDE4 and PDE3 inhibition results in subsequent down-regulation of pro-inflammatory cytokines/chemokines and its regulators, and experiments were conducted to confirm such down-regulation by brilacidin in ex vivo cell-based assays. In these assays, cells were exposed to brilacidin 45 minutes before an 8-hour lipopolysaccharide (LPS) stimulation in the presence of brilacidin; cytokine/enzyme concentrations were determined by ELISA using a standard immunoassay kit.

[2] = tested on: LPS-induced IL-1β release, NR8383 cells; test: LPS-induced IL-1β release in NR8383 rat alveolar macrophages (ELISA); format: cell-based; conditions: Macrophage, 8-hour brilacidin and LPS exposure, read-out: IC50, inhibition of LPS-induced IL-1β release
Experimental: To examine the effect of brilacidin on the pro-inflammatory cytokine IL-1β production in cells, rat alveolar macrophage (NR8383) cells were pretreated with a range of brilacidin concentrations for 45 minutes, followed by treatment with 1 μg/ml LPS from E. coli (Sigma, St. Louis, MO) for 8 hours in the presence of brilacidin. After 8 hours, supernatants were collected for IL-1β measurement by ELISA. IL-1β was measured using an immunoassay kit according to manufacturer's instructions (Thermo Scientific, Rockford, IL).
as §1

in vivo = test: in vivo; set-up: species or system male Balb/c mice; conditions: mouse, 10 mg/kg
Experimental: Method for FIG. 12. […] The small intestine with content of each animal for were harvested and placed per animal per tissue into a tube. The small intestine with content samples were snap frozen in dry ice and then stored at −80° C. until bioanalysis. All the samples were labeled with detailed information such as study number, animal number, matrix, and time points of collection and date of collection. In addition, the extra animals obtained for the study, but not placed on study were used for collection of small intestine with content. The resulting small intestine with content samples were then applied to the development of the bioanalytical method and sample bioanalysis in this study. Bioanalytical analysis was performed on samples by LC-MS/MS.
For analyzing the contents of the small intestine, small intestine samples were homogenized by adding saline (1 g small intestine: 5 mL saline). Small intestine homogenates (50 μL) were transferred to tubes and 250 μL internal standard (IS) working solution (50 ng/mL Carvedilol) was added to each sample. After vortexing for 1 minute and centrifuging for 5 minutes at 15,000 rpm, 100 μL aliquots of supernatant were transferred to glass autosampler vials.
Method for FIG. 13. […] The ratios versus time are shown.
At 1 hour, the concentration in the small intestine peaked at 38,941±4703 ng/gram of tissue (FIG. 12).

With N=C(N)NCCCCC(=O)Nc1cc(C(F)(F)F)cc(NC(=O)c2cc(C(=O)Nc3cc(C(F)(F)F)cc(NC(=O)CCCCNC(=N)N)c3O[C@@H]3CCNC3)ncn2)c1O[C@@H]1CCNC1 [PMX-30063, N^4,N^6-bis(2-((R)-pyrrolidin-3-yloxy)-3-((4-carbamoylbutyl)guanidine)-5-(trifluoromethyl)phenyl)pyrimidine-4,6-dicarboxamide tetrahydrochloride salt] the pIC50 ([1]; NR8383 cells, ELISA, 45 min pretreatment, 8-hour LPS, read-out: IC50, inhibition of LPS-induced IL-6 release) was 6.56, the inhibition at 0.5 µM ([1]; at 0.5 μM, NR8383, LPS 1 μg/ml 8 h, read-out: decrease in IL-6 levels / inhibition of LPS induced IL-6 production) was ~50% and the pIC50 [2] was 6.15. The “total exposure (AUC) in the blood upon oral administration” value (in vivo; male, Balb/c) was “less than 0.5%”, the Cmax (in vivo; male, Balb/c, po) was 38900 ng/g and the Kp (in vivo; male, Balb/c, po) was 2240 to 4320. The Tmax (in vivo; male, Balb/c, po) was 60 min, the half-life (in vivo; male, Balb/c, po) was 47.4 min and the “AUC(0-t)” value (in vivo; po) was 86089 ng·h/g. The “AUC(0-∞)” value (in vivo; po) was 89525 ng·h/g and the “MRT(0-∞)” value (in vivo; po) was 1.52 H.
